# Experimental data from paper PMC6906431, “Selective small molecule PARG inhibitor causes replication fork stalling and cancer cell death” (Nature Communications, 2019).
# Biological target: T1, Human PARG (Homo sapiens, UniProt Q86W56)
# T1 construct: The human PARG (hPARG) catalytic domain (residues 389–976) was cloned in pET28a (Novagen); His-tag (N); made in house; host or cells: E. coli Rosetta
# Assay: Gel-based PARG activity assay
# Format: biochemical
# Procedure: PARP1C (2 μM) is enzymatically auto-modified in a reaction containing the PARP1 DBD (2 μM), a 24 mer nicked DNA oligo (2 μM), and NAD^+ (300 μM) for 1 h at 37 °C, as described previously. Human PARG^389–976 (1 nM) was pre-incubated with compounds for 1 h at room temperature. The reaction was initiated by the addition of PARylated PARP1 (final concentration of 500 nM) and quenched after 30 min incubation at room temperature by adding SDS-PAGE sample buffer. The gel was visualized by sypro-ruby staining[18] and the retained PARylated PARP1C species were quantified using ImageJ[59]. PARylated PARP1C that migrates slower than unmodified PARP1C was quantified. […] The IC50 values were determined by fitting the dose-response data for each compound to a four-parameter logistic equation using SigmaPlot (Systat Software Inc.).
# To test the specificity of JA2131, human PARG^389–976 (1 nM) was pre-incubated with JA2131 (5, 10, and 20 μM) in the presence and absence of 0.1% Triton-X 100 or 0.1 mg/ml BSA for 1 h at room temperature. The reaction was initiated, quenched, visualized, and quantified as described above. […]
# PARG activity assay. […]
# PARP1 (500 nM). The reaction was quenched after a 30 -minu te in cu ba tion a t roo m te mpe ra tu re by adding SDS-PA GE sa mp le bu f fe r. PARylated PARP1C runs as a smear on SDS -PAGE that is reduced to a single band by PARG treatment. […]
# 2). (b) Qu an t if ica t ion o f the dose-response PARG inhibition by JA2 -3 using the gel-based PARG activity assay. hPARG (1 nM) was preincubated with increasing concentrations (0.032 – 1 µM) of JA2-3 f o r 1 hour at room temperature before PARylated PARP1C (500 nM) was added. The reaction was quenched after a 30-minu te incubation at room temperature. PARylated PARP1C migrates slower than unmodified PARP1C and was quantified using ImageJ. […] The rate of the PARG-dependent signal loss in the TR-FRET PAR turnover assay is not equivalent to the steady-state rate of PAR turnover, because the TR-FRET assay can’t detect signal loss until the length of PAR chains become shorter than 7 ADP-ribose units. Therefore, we used the gel-based PARG activity assay to accurately determine the IC50 values throughout the manuscript .
# T1 sequence (Q86W56 389-976): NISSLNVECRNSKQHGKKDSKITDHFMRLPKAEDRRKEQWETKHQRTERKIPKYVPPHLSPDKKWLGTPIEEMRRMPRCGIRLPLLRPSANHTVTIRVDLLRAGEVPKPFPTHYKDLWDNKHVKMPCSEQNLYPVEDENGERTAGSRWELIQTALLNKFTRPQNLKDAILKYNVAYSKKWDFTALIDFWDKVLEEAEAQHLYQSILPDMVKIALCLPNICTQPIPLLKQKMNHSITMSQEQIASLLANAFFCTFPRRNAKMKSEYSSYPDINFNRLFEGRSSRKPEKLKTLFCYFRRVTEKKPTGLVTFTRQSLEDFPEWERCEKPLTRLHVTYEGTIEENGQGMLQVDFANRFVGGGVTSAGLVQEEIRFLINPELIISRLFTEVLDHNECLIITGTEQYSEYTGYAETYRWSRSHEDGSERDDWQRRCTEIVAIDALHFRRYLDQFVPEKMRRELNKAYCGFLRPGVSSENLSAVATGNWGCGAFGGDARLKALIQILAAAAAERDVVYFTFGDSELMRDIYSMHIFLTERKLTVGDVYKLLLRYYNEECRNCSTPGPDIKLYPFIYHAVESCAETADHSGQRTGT
smiles,measurement,setting,value
Cn1c(=S)c2[nH]c(SCCN3CCOCC3)nc2n(C)c1=O [JA2131],potency difference JA2131 (6´-thiocarbonyl) vs JA2120 (6´-carbonyl),,more than 50 fold
same,effect of detergent or nonspecific protein on PARG inhibition,"JA2131 5, 10, 20 μM, 0.1% Triton-X 100 or 0.1 mg/ml BSA",Neither the addition of Triton-X 100 nor BSA significantly altered the inhibitory potency
same,inhibition at 0.0488281 µM,[L] 0.0488281 uM,13.8%
same,inhibition at 0.0976562 µM,[L] 0.0976562 uM,26.2%
same,inhibition at 0.195312 µM,[L] 0.195312 uM,34.6%
same,inhibition at 0.390625 µM,[L] 0.390625 uM,58.8%
same,inhibition at 0.78125 µM,[L] 0.78125 uM,62.5%
same,inhibition at 1.5625 µM,[L] 1.5625 uM,75.5%
same,inhibition at 3.125 µM,[L] 3.125 uM,84.3%
same,inhibition at 6.25 µM,[L] 6.25 uM,98.7%
same,inhibition at 12.5 µM,[L] 12.5 uM,99.5%
same,inhibition at 25 µM,[L] 25 uM,104%
same,inhibition at 50 µM,[L] 50 uM,94%
same,IC50,"hPARG 1 nM, PARylated PARP1C 500 nM, 30 min",400 nM
